# Test results taken from patent US10561667B2, “Orbit azine-fumarate, hydrate, crystal form and preparation method therefor” (SHENZHEN ZHENXING MEDICAL TECHNOLOGY CO., LTD., priority 2015, dated 2020).
# Assays:
# [1] = Stability of crystal forms in sodium phosphate/hydrochloric acid buffer pH=6.8 (37° C.); assay type: physicochemical; details: for Purity: pH = 6.8 buffer, 37° C.
# Protocol: 1. Test on Stability of Crystal Forms in Different Media
# 1.1 Stability of Different Crystal Forms in Sodium Phosphate/Hydrochloric Acid Buffer pH=6.8 (37° C.)
# [2] = Affect factor test: related substance and transformation in crystal form (10 days); assay type: physicochemical; details: for Purity, High temperature (60° C.) / Purity, High humidity (RH = 92.5%) / Purity, Illumination (ultraviolet lamp): 10 days; for Crystal form: after 10 days at high temperature, high humidity or illumination; for Purity of raw material: before the affect factor test (baseline); for Stability of purity: high temperature, high humidity, or illumination, 10 days later
# From the text: (§1) 3. Affect Factor Test of Different Crystal Forms
# 3.1 Related Substance and Transformation in Crystal Form (10 Days)
# [3] = Hygroscopicity; assay type: physicochemical
# Protocol: (§2) 3.2 Change in Appearance and Hygroscopicity (10 Days)
# Hygroscopicity was measured by reference to methods in Appendix X IX J Laboratory Procedure on Determination of Hygroscopicity of Drugs in Pharmacopoeia of The People's Republic of China (2010).
# [4] = tested on: human colorectal cancer cell SW480; assay: MTT proliferation inhibition, SW480; assay type: cell-based
# From the text: (§3) The tumor cells included, but were not limited to the following cells: human colorectal cancer cell SW480, human gastric adenocarcinoma cell MGC-803, human […], human lymphoma cell U937, human liver cancer cell Hep-G2, human cervical cancer cell Hela, human neuroglioma cell BT-325, human medulloblastoma D341 Med, and human gallbladder cancer cell GBC-SD.
# (§4) Experimental method: cells in exponential growth phase were collected, and seeded to a 96-well cell culture plate, at a final concentration of 5×10^3 cells/90 μl/well. […] After the treatment for 72 h, 10 μl MTT solution (5 mg/ml, Sigma) was added to each well, and the cells were further cultured for 4 h. The culture medium was discarded, 100 μl DMSO was added to each well, and dissolution was carried out under rotation on a shaking table for 10 min.
# [5] = tested on: human gastric adenocarcinoma cell MGC-803; assay: MTT proliferation inhibition, MGC-803; assay type: cell-based; details: MGC-803, MTT
# From the text: as §3, §4
# [6] = tested on: human small cell lung adenocarcinoma cell A549; assay: MTT proliferation inhibition, A549; assay type: cell-based
# From the text: as §3, §4
# [7] = tested on: human lymphoma cell U937; assay: MTT proliferation inhibition, U937; assay type: cell-based
# From the text: as §3, §4
# [8] = tested on: human liver cancer cell Hep-G2; assay: MTT proliferation inhibition, Hep-G2; assay type: cell-based
# From the text: as §3, §4
# [9] = tested on: human cervical cancer cell Hela; assay: MTT proliferation inhibition, Hela; assay type: cell-based; details: 72 h
# From the text: as §3, §4
# [10] = tested on: human neuroglioma cell BT-325; assay: MTT proliferation inhibition, BT-325; assay type: cell-based; details: BT-325, MTT, 72 h
# From the text: as §3, §4
# [11] = tested on: human medulloblastoma D341 Med; assay: MTT proliferation inhibition, D341 Med; assay type: cell-based; details: 72 h
# From the text: as §3, §4
# [12] = tested on: human gallbladder cancer cell GBC-SD; assay: MTT proliferation inhibition, GBC-SD; assay type: cell-based; details: 72 h
# From the text: as §3, §4
# [13] = Stability of crystal forms in hydrochloric acid solution pH=1.2 (37° C.); assay type: physicochemical; details: for Purity: pH = 1.2 hydrochloric acid solution, 37° C.; for Change of purity: stirred in hydrochloric acid medium pH=1.2 for 24 h
# Protocol: 1.2 Stability of Different Crystal Forms in Hydrochloric Acid Solution with pH=1.2 (37° C.)
# [14] = Affect factor test: change in appearance (10 days); assay type: physicochemical
# From the text: as §1, §2
# [15] = 72 h, listed as an amorphous form
# [16] = 0 h (baseline), monofumarate monohydrate
smiles,measurement,setting,value
"C=CCc1cccc(/C=N/NC(=O)CN2CCCN(Cc3ccccc3)CC2)c1O [Amorphous form, orbit azine monofumarate]",Purity,[1]; 0 h (baseline),97.980%
same,Purity,[1]; 4 h,87.266%
same,Purity,[1]; 24 h,85.026%
same,"Purity, High temperature (60° C.)",[2],95.989%
same,"Purity, High humidity (RH = 92.5%)",[2],97.537%
same,Crystal form,[2],converted to Form B under the condition of high humidity
same,Purity of raw material,[2],97.980%
same,"Purity, Illumination (ultraviolet lamp)",[2],96.880%
same,"Hygroscopicity, weight increase/%",[3]; 2014 Nov. 17 to 2014 Nov. 24,118.620%
same,Hygroscopicity,[3]; moisture absorption,significant weight increase
same,IC50,[4]; [15],1.78 µM
same,IC50,[5]; [15],1.6 µM
same,IC50,[6]; [15],2.97 µM
same,IC50,[7]; [15],0.418 µM
same,IC50,[8]; [15],8.38 µM
same,IC50,[9]; listed as an amorphous form,5.65 µM
same,IC50,[10]; listed as an amorphous form,2.52 µM
same,IC50,[11]; listed as an amorphous form,0.447 µM
same,IC50,[12]; listed as an amorphous form,6.58 µM
"C=CCc1cccc(/C=N/NC(=O)CN2CCCN(Cc3ccccc3)CC2)c1O [Form B, orbit azine monofumarate monohydrate]",Degradation in the medium with pH=6.8,"[1]; pH = 6.8, 37° C.",degraded to a slightly less extent
same,Purity,[1]; [16],98.413%
same,Purity,"[1]; 4 h, monofumarate monohydrate",93.112%
same,Purity,"[1]; 24 h, monofumarate monohydrate",90.266%
same,Extent of degradation compared,[13]; hydrochloric acid medium pH=1.2,degraded to a slightly less extent
same,Purity,[13]; [16],98.413%
same,Purity,"[13]; 24 h, monofumarate monohydrate",79.443%
same,Purity,"[13]; 48 h, monofumarate monohydrate",78.122%
same,Change of purity,[13],decreased greatly
same,"Purity, High temperature (60° C.)",[2]; monofumarate monohydrate,97.809%
same,"Purity, High humidity (RH = 92.5%)",[2]; monofumarate monohydrate,98.176%
same,Crystal form,[2]; monofumarate monohydrate,Form B
same,Purity of raw material,[2]; monofumarate monohydrate,98.413%
same,Stability of purity,[2],relatively stable
same,"Purity, Illumination (ultraviolet lamp)",[2]; monofumarate monohydrate,98.116%
same,Appearance,"[14]; High humidity, monofumarate monohydrate",white solid
same,Appearance,"[14]; High temperature, monofumarate monohydrate",white solid
same,Appearance,"[14]; Illumination, monofumarate monohydrate",white solid
same,IC50,"[4]; 72 h, monofumarate monohydrate",1.98 µM
same,IC50,"[5]; 72 h, monofumarate monohydrate",1.39 µM
same,IC50,"[6]; 72 h, monofumarate monohydrate",2.9 µM
same,IC50,"[7]; 72 h, monofumarate monohydrate",0.495 µM
same,IC50,"[8]; 72 h, monofumarate monohydrate",8.32 µM
same,IC50,[9]; monofumarate monohydrate,5.75 µM
same,IC50,[10]; monofumarate monohydrate,2.31 µM
same,IC50,[11]; monofumarate monohydrate,0.43 µM
same,IC50,[12]; monofumarate monohydrate,6.16 µM
"C=CCc1cccc(/C=N/NC(=O)CN2CCCN(Cc3ccccc3)CC2)c1O [Form D, orbit azine difumarate]",Purity,[1]; 0 h (baseline),97.999%
same,Purity,[1]; 4 h,85.418%
same,Purity,[1]; 24 h,84.552%
same,IC50,"[4]; Homo sapiens, SW480, 72 h",1.67 µM
same,IC50,"[5]; Homo sapiens, MGC-803, 72 h",1.45 µM
same,IC50,"[6]; Homo sapiens, A549, 72 h",2.87 µM
same,IC50,"[7]; Homo sapiens, U-937, 72 h",0.414 µM
same,IC50,"[8]; Homo sapiens, HepG2, 72 h",8.18 µM
same,IC50,"[9]; Homo sapiens, HeLa",5.17 µM
same,IC50,[10]; Homo sapiens,2.71 µM
same,IC50,[11]; Homo sapiens,0.484 µM
same,IC50,[12]; Homo sapiens,6.95 µM
"C=CCc1cccc(/C=N/NC(=O)CN2CCCN(Cc3ccccc3)CC2)c1O [Form A, orbit azine monofumarate]",Purity,[1]; 0 h (baseline),98.069%
same,Purity,[1]; 4 h,87.153%
same,Purity,[1]; 24 h,84.864%
same,"Purity, High temperature (60° C.)",[2],97.665%
same,"Purity, High humidity (RH = 92.5%)",[2],97.699%
same,Crystal form,[2],Form A
same,Purity of raw material,[2],98.096%
same,Stability of purity,[2],relatively stable
same,"Purity, Illumination (ultraviolet lamp)",[2],97.775%
same,Appearance,[14]; High humidity,white solid
same,Appearance,[14]; High temperature,white solid
same,Appearance,[14]; Illumination,white solid
same,Water absorbability,[3]; product of Example 1,no water absorbability
same,IC50,[4]; 72 h,1.77 µM
same,IC50,[5]; 72 h,1.36 µM
same,IC50,[6]; 72 h,2.99 µM
same,IC50,[7]; 72 h,0.425 µM
same,IC50,[8]; 72 h,8.41 µM
same,IC50,[9],5.68 µM
same,IC50,[10],2.88 µM
same,IC50,[11],0.433 µM
same,IC50,[12],6.48 µM
"C=CCc1cccc(/C=N/NC(=O)CN2CCCN(Cc3ccccc3)CC2)c1O [Form C, orbit azine difumarate]",Purity,[1]; 0 h (baseline),94.584%
same,Purity,[1]; 4 h,83.292%
same,Purity,[1]; 24 h,82.680%
same,Purity,[13]; 0 h (baseline),97.865%
same,Purity,[13]; 24 h,72.042%
same,Purity,[13]; 48 h,71.017%
same,Change of purity,[13],decreased greatly
same,"Purity, High temperature (60° C.)",[2],97.244%
same,"Purity, High humidity (RH = 92.5%)",[2],97.733%
same,Crystal form,[2],Form C
same,Purity of raw material,[2],97.865%
same,"Purity, Illumination (ultraviolet lamp)",[2],95.696%
same,Change of color,[14],turned slightly yellow
same,Appearance,[14]; High humidity,white solid
same,Appearance,[14]; High temperature,white solid
same,IC50,[4]; 72 h,1.93 µM
same,IC50,[5]; 72 h,1.28 µM
same,IC50,[6]; 72 h,3.07 µM
same,IC50,[7]; 72 h,0.391 µM
same,IC50,[8]; 72 h,8.21 µM
same,IC50,[9],5.49 µM
same,IC50,[10],2.65 µM
same,IC50,[11],0.411 µM
same,IC50,[12],6.37 µM
